Laboratory results: PMC9019904, “AD Informer Set: Chemical tools to facilitate Alzheimer's disease drug discovery” (Alzheimer's & Dementia : Translational Research & Clinical …, 2022)
Converted amounts (≈) assume the structure as drawn.

Columns and labels:
[1] = Kinetic solubility in aqueous buffer pH 7.4 by total chemiluminescent nitrogen determination (Analiza); details: aqueous buffer, pH 7.4, aqueous buffer, kinetic from dmso stock
[2] = system: BV2 (mouse microglia) cell line; test: pHrodo-myelin phagocytosis/cell viability high content imaging assay: phagocytosis signal; type: cell-based; details: for 4. Phagocytosis (% control): 10 uM compound, 48 hours treatment, pHrodo-myelin final 20 hours
Outline: (§1)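 Imaging at high content captured pHrodo-myelin uptake about 22 hours after its addition, alongside a viability read-out from the same cells. Three measurements were derived, with intensity increase marking early apoptosis and decrease marking later apoptosis.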

[3] = system: BV2 (mouse microglia) cell line; test: pHrodo-myelin phagocytosis/cell viability high content imaging assay: viability (cell count, nuclear area, nuclear intensity); details: for 1. Cell count (% control) / 2. Nuclear Area (% Control) / 3. Nuclear DNA Intensity (% control): BV2 cells, 10 uM compound, 48 hours treatment
Outline: (§2)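 BV2 mouse and HMC3 human microglia were treated with compounds at 10 μM for 48 h, with pHrodo-myelin present for the last 20 h. Viability was imaged as total cell count per well and mean nuclear intensity per cell. Values are means of duplicates, normalized to untreated wells as % control.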

[4] = system: HMC3 (human microglia) cell line; test: as above; details: for 1. Cell count (% control) / 2. Nuclear Area (% Control) / 3. Nuclear DNA Intensity (% control): HMC3 cells, 10 uM compound, 48 hours treatment
Outline: as §2

[5] = system: HMC3 (human microglia) cell line; test: pHrodo-myelin phagocytosis/cell viability high content imaging assay: phagocytosis signal; type: cell-based; details: HMC3 cells, 10 uM compound, 48 hours treatment, pHrodo-myelin final 20 hours
Outline: as §1

SMILES: CN1C[C@H](Nc2cnn(C)c(=O)c2Br)C[C@H](c2ccccc2)C1 [GSK4027]
- solubility kinetic [1]: 126 µM (≈ 47.6 µg/mL)

SMILES: CC(C)(O)c1coc(S(=O)(=O)NC(=O)Nc2c3c(cc4c2CCC4)CCC3)c1 [MCC950]
- solubility kinetic [1]: 119 µM (≈ 48.2 µg/mL)

SMILES: Cc1ccccc1NC(=O)CN1C(=O)N/C(=C/c2ccccc2OCc2ccc(C(=O)O)cc2)C1=O [CHEMBL1416302]
- solubility kinetic [1]: 26.6 µM (≈ 12.9 µg/mL)
- Stimulation of mouse microglial phagocytosis at 10 μM (>150% control) ([2]; BV2 cells, 10 μM): Y (The compound was found to stimulate phagocytosis (response threshold: >150% control) when murine immortalized microglial cells were dosed at 10 μM (Y: yes))

SMILES: Cl.O=C(O)Cc1cccc(OCCCN(Cc2cccc(C(F)(F)F)c2Cl)CC(c2ccccc2)c2ccccc2)c1 [GW 3965 HCl]
- solubility kinetic [1]: 4.1 µM

SMILES: CCS(=O)(=O)N1CCN(c2ccc(Nc3ncc(C(N)=O)c(NC4CC4)n3)cc2)CC1 [Cerdulatinib]
- solubility kinetic [1]: 1.8 µM (≈ 0.802 µg/mL)
- Mouse microglial cytotoxicity at 10 μM (<70% control) ([3]; BV2, 10 μM, cell count <70% control): Y (The compound was found to be cytotoxic (cell count threshold: <70% control) when murine immortalized microglial cells were dosed at 10 μM (Y: yes))
- Human microglial cytotoxicity at 10 μM (<70% control) ([4]; HMC3, 10 μM, cell count <70% control): Y (The compound was found to be cytotoxic (cell count threshold: <70% control) when human immortalized microglial cells were dosed at 10 μM (Y: yes))
- Inhibition of mouse microglial phagocytosis at 10 μM (<70% control) ([2]; BV2, 10 μM): Y (The compound was found to inhibit phagocytosis (response threshold: <70% control) when murine immortalized microglial cells were dosed at 10 μM (Y: yes))

SMILES: O=c1[nH]c(=O)n([C@H]2C[C@H](O)[C@@H](CO)O2)cc1/C=C/Br [RP101 (Brivudine)]
- solubility kinetic [1]: 199 µM (≈ 66.2 µg/mL)

SMILES: CC1(C)CCC(CN2CCN(c3ccc(C(=O)NS(=O)(=O)c4ccc(NCC5CCOCC5)c([N+](=O)[O-])c4)c(Oc4cnc5[nH]ccc5c4)c3)CC2)=C(c2ccc(Cl)cc2)C1 [Venetoclax (ABT-199)]
- solubility kinetic [1]: 6.3 µM (≈ 5.47 µg/mL)
- Stimulation of mouse microglial phagocytosis at 10 μM (>150% control) ([2]; BV2, 10 μM): Y (The compound was found to stimulate phagocytosis (response threshold: >150% control) when murine immortalized microglial cells were dosed at 10 μM (Y: yes))

SMILES: O=C(NNc1nc2cc(F)ccc2n2cccc12)c1cnccn1 [SC144]
- solubility kinetic [1]: 2.7 µM (≈ 0.87 µg/mL)
- Mouse microglial cytotoxicity at 10 μM (<70% control) ([3]; 10 μM, BV2): Y (The compound was found to be cytotoxic (cell count threshold: <70% control) when murine immortalized microglial cells were dosed at 10 μM (Y: yes))
- Stimulation of mouse microglial phagocytosis at 10 μM (>150% control) ([2]; 10 μM, BV2): Y (The compound was found to stimulate phagocytosis (response threshold: >150% control) when murine immortalized microglial cells were dosed at 10 μM (Y: yes))

SMILES: Cc1ccc(-n2nc(C(C)(C)C)cc2NC(=O)Nc2ccc(OCCN3CCOCC3)c3ccccc23)cc1 [Doramapimod (BIRB 796)]
- solubility kinetic [1]: 3.6 µM (≈ 1.9 µg/mL)
- Stimulation of mouse microglial phagocytosis at 10 μM (>150% control) ([2]; 10 μM, BV2): Y (The compound was found to stimulate phagocytosis (response threshold: >150% control) when murine immortalized microglial cells were dosed at 10 μM (Y: yes))

SMILES: COc1cc(C(=O)NS(=O)(=O)c2ccccc2C)ccc1Cc1cn(C)c2ccc(NC(=O)OC3CCCC3)cc12 [Zafirlukast]
- solubility kinetic [1]: 129 µM (≈ 74.4 µg/mL)

SMILES: Cc1cccc(-c2nn3c(c2-c2ccnc4ccc(C(N)=O)cc24)CCC3)n1 [Galunisertib]
- solubility kinetic [1]: 249 µM (≈ 92.1 µg/mL)
- Stimulation of mouse microglial phagocytosis at 10 μM (>150% control) ([2]; BV2, 10 μM): Y (The compound was found to stimulate phagocytosis (response threshold: >150% control) when murine immortalized microglial cells were dosed at 10 μM (Y: yes))

SMILES: C=CC[C@@H]1/C=C(\C)C[C@H](C)C[C@H](OC)[C@H]2O[C@@](O)(C(=O)C(=O)N3CCCC[C@H]3C(=O)O[C@H](/C(C)=C/[C@@H]3CC[C@@H](O)[C@H](OC)C3)[C@H](C)[C@@H](O)CC1=O)[C@H](C)C[C@@H]2OC [Tacrolimus]
- solubility kinetic [1]: 95.5 µM (≈ 76.8 µg/mL)
- Mouse microglial cytotoxicity at 10 μM (<70% control) ([3]; 10 μM, BV2): Y (The compound was found to be cytotoxic (cell count threshold: <70% control) when murine immortalized microglial cells were dosed at 10 μM (Y: yes))
- Stimulation of mouse microglial phagocytosis at 10 μM (>150% control) ([2]; 10 μM, BV2): Y (The compound was found to stimulate phagocytosis (response threshold: >150% control) when murine immortalized microglial cells were dosed at 10 μM (Y: yes))

SMILES: COc1cc(N2CCC(N3CCN(C)CC3)CC2)ccc1Nc1ncc(Cl)c(Nc2ccccc2P(C)(C)=O)n1 [Brigatinib]
- solubility kinetic [1]: 123 µM (≈ 72.1 µg/mL)
- Mouse microglial cytotoxicity at 10 μM (<70% control) ([3]; BV2, 10 μM): Y (The compound was found to be cytotoxic (cell count threshold: <70% control) when murine immortalized microglial cells were dosed at 10 μM (Y: yes))
- Stimulation of mouse microglial phagocytosis at 10 μM (>150% control) ([2]; BV2, 10 μM): Y (The compound was found to stimulate phagocytosis (response threshold: >150% control) when murine immortalized microglial cells were dosed at 10 μM (Y: yes))

SMILES: CCOC(=O)N1CCC(Nc2c(NCCN3CCN(c4cccc(C(F)(F)F)c4)CC3)c(=O)c2=O)CC1 [Squarunkin A]
- solubility kinetic [1]: 0.7 µM (≈ 0.366 µg/mL)

SMILES: Cc1cnc(Nc2ccc(F)cc2Cl)nc1-c1c[nH]c(C(=O)N[C@H](CO)c2cccc(Cl)c2)c1 [Vertex 11e]
- solubility kinetic [1]: 1.4 µM (≈ 0.701 µg/mL)

SMILES: Cc1ccccc1C(=O)Nc1ccc(C(=O)N2CCCC(O)c3cc(Cl)ccc32)c(C)c1 (stereo not drawn) [Tolvaptan]
- solubility kinetic [1]: 31.8 µM (≈ 14.3 µg/mL)
- Stimulation of mouse microglial phagocytosis at 10 μM (>150% control) ([2]; BV2, 10 μM): Y (The compound was found to stimulate phagocytosis (response threshold: >150% control) when murine immortalized microglial cells were dosed at 10 μM (Y: yes))

SMILES: O=C(NC1CC1)C(=O)C(Cc1ccccc1)NC(=O)[C@H]1CCC(=O)N1Cc1ccccc1 (stereo partly drawn) [ABT-957 (Alicapistat)]
- solubility kinetic [1]: 176 µM (≈ 76.5 µg/mL)

SMILES: COCCOCCOC(=O)N[C@@H](CC(C)C)C(=O)N[C@@H](Cc1ccccc1)C(=O)C(=O)NC1CC1 [SNJ-1945]
- solubility kinetic [1]: 150 µM (≈ 73.9 µg/mL)

SMILES: Clc1ccc(N/N=C(\c2ccccc2)c2ccccn2)nc1 [JIB-04]
- solubility kinetic [1]: 24.3 µM (≈ 7.5 µg/mL)
- Mouse microglial cytotoxicity at 10 μM (<70% control) ([3]; 10 μM, BV2): Y (The compound was found to be cytotoxic (cell count threshold: <70% control) when murine immortalized microglial cells were dosed at 10 μM (Y: yes))
- Stimulation of mouse microglial phagocytosis at 10 μM (>150% control) ([2]; 10 μM, BV2): Y (The compound was found to stimulate phagocytosis (response threshold: >150% control) when murine immortalized microglial cells were dosed at 10 μM (Y: yes))

SMILES: O=c1oc2ccccc2cc1-c1cn2cc(Cc3ccc(F)cc3)sc2n1 [iMDK]
- solubility kinetic [1]: < 1.1 µM
- Mouse microglial cytotoxicity at 10 μM (<70% control) ([3]; 10 μM, BV2): Y (The compound was found to be cytotoxic (cell count threshold: <70% control) when murine immortalized microglial cells were dosed at 10 μM (Y: yes))

SMILES: O=C(O)c1cc2nc(-c3ccc(Cl)cc3)cc(C(F)(F)F)n2n1 [ZINC00184372]
- solubility kinetic [1]: 270 µM (≈ 92.2 µg/mL)
- Stimulation of mouse microglial phagocytosis at 10 μM (>150% control) ([2]; 10 μM, BV2): Y (The compound was found to stimulate phagocytosis (response threshold: >150% control) when murine immortalized microglial cells were dosed at 10 μM (Y: yes))

SMILES: CN(C)CC[C@H](CSc1ccccc1)Nc1ccc(S(=O)(=O)NC(=O)c2ccc(N3CCN(Cc4ccccc4-c4ccc(Cl)cc4)CC3)cc2)cc1[N+](=O)[O-] [ABT-737]
- solubility kinetic [1]: 0.9 µM (≈ 0.732 µg/mL)

SMILES: CCn1c(=O)/c(=C2\Sc3ccccc3N2C)s/c1=C\c1ccccn1 [YM-08]
- solubility kinetic [1]: 4.6 µM (≈ 1.69 µg/mL)

SMILES: CC(C)c1ccc(/C=N/NC(=O)c2ccc(O)cc2)cc1 [GSK 4716]
- solubility kinetic [1]: 215 µM (≈ 60.6 µg/mL)

SMILES: CC/C(=C(\c1ccc(O)cc1)c1ccc(OCCN(C)C)cc1)c1ccccc1 [Afimoxifene]
- solubility kinetic [1]: 19.5 µM (≈ 7.56 µg/mL)
- Stimulation of mouse microglial phagocytosis at 10 μM (>150% control) ([2]; BV2, 10 μM): Y (The compound was found to stimulate phagocytosis (response threshold: >150% control) when murine immortalized microglial cells were dosed at 10 μM (Y: yes))

SMILES: Cc1cc(NC(=O)Nc2ccc(F)c(F)c2)n(-c2ccccc2)n1 [ML 297]
- solubility kinetic [1]: 49.9 µM (≈ 16.4 µg/mL)
- Stimulation of mouse microglial phagocytosis at 10 μM (>150% control) ([2]; 10 μM, BV2): Y (The compound was found to stimulate phagocytosis (response threshold: >150% control) when murine immortalized microglial cells were dosed at 10 μM (Y: yes))

SMILES: N#Cc1ccc(COC[C@H]2O[C@@H](n3c(NCc4ccc(Cl)c(Cl)c4)nc4c(N)ncnc43)[C@H](O)[C@@H]2O)cc1 [VER-155008]
- solubility kinetic [1]: 14.3 µM (≈ 7.96 µg/mL)
- Mouse microglial cytotoxicity at 10 μM (<70% control) ([3]; 10 μM, BV2): Y (The compound was found to be cytotoxic (cell count threshold: <70% control) when murine immortalized microglial cells were dosed at 10 μM (Y: yes))
- Stimulation of mouse microglial phagocytosis at 10 μM (>150% control) ([2]; 10 μM, BV2): Y (The compound was found to stimulate phagocytosis (response threshold: >150% control) when murine immortalized microglial cells were dosed at 10 μM (Y: yes))

SMILES: Cc1cc(NC(=O)Nc2ccccc2)n(-c2ccccc2)n1 [CHEMBL86962 (VU0032230)]
- solubility kinetic [1]: 191 µM (≈ 55.9 µg/mL)

SMILES: CN(C)CCCn1c(N)c(-c2nc3ccccc3[nH]2)c2nc3ccccc3nc21 [UNC10302891A]
- 1. Cell count (% control) [3]: 121.8 % control
- 2. Nuclear Area (% Control) [3]: 105.7 % Control
- 3. Nuclear DNA Intensity (% control) [3]: 98.0 % control
- 1. Cell count (% control) [4]: 137.9 % control
- 2. Nuclear Area (% Control) [4]: 99.6 % Control
- 3. Nuclear DNA Intensity (% control) [4]: 97.0 % control
- 4. Phagocytosis (% control) ([2]; BV2 cells): 109.5 % control
- 4. Phagocytosis (% control) [5]: 44.4 % control

SMILES: Br.CCCc1cc(-c2nc(-c3ccc(C)cc3)cs2)ccn1 [UNC10302889A]
- 1. Cell count (% control) [3]: 52.9 % control
- 2. Nuclear Area (% Control) [3]: 97.6 % Control
- 3. Nuclear DNA Intensity (% control) [3]: 117.7 % control
- 1. Cell count (% control) [4]: 81.4 % control
- 2. Nuclear Area (% Control) [4]: 79.1 % Control
- 3. Nuclear DNA Intensity (% control) [4]: 141.7 % control
- 4. Phagocytosis (% control) ([2]; BV2 cells): 198.0 % control
- 4. Phagocytosis (% control) [5]: 101.1 % control
